We go through 3 compounds from BindingDB's records for doi:10.1021/jm00107a034 (Sterling Research Group, 1991).

Assay [1] is described as follows: Concentration required to inhibit 50% activity of prostaglandin synthetase was determined in mouse vas deferens.
A short description of assay [2]: Concentration required to inhibit 50% activity of prostaglandin synthetase was determined in vitro in mouse brain microsomes.

For `COc1ccc(C(=O)c2c(C)n(CCN3CCOCC3)c3ccccc23)cc1` [(s-cis) -(4-Methoxy-phenyl)-[2-methyl-1-(2-morpholin-4-yl-ethyl)-1H-indol-3-yl]-methanone], the half-inhibitory concentration (IC50) in assay [1] is more than 30 µM.
Same read-out and setting: the figure for `Cc1c(C(=O)c2cccc3ccccc23)c2ccccc2n1CCN1CCOC(O)C1` (centres undefined) is 0.57 µM.
`COc1ccc(C(=O)c2cn(CCN3CCOCC3)c3ccccc23)cc1`: the IC50 in assay [2] is more than 30 µM; in assay [1], 5 µM.

The term IC50 denotes the midpoint of a concentration-inhibition curve. Read a low IC50 as higher potency.
